Activity calls are given as the source filed them. The calls are words filed in the database; no cut-off is given here.
Key:
[1] = Inhibition of beta hematin formation assessed as molar equivalent of the compound required to inhibit 50 % beta-hematin formation after 18 hrs by spectrophotometric microassay relative to hemin; format: functional
Heart [2] = assay: Cardiotoxicity against Sprague-Dawley rat Langendorff perfused heart assessed as cycle length time at 0.1 uM by electrophysiological analysis (reference value: 258.62 8.87 ms); format: toxicity, tissue-based
Heart [3] = assay: Cardiotoxicity against Sprague-Dawley rat Langendorff perfused heart assessed as QTc time interval at 30 uM by electrophysiological analysis (reference value: 145.78 10.53 ms); format: toxicity, tissue-based
[4] = Elimination half life in CD1 albino mouse liver at 50 mg/kg, po; format: ADME, organism-based; set-up: dose 50 mg/kg, route oral; conditions: read-out: beta t1/2 (converted)
Salmonella typhimurium [5] = assay: Mutagenicity against Salmonella typhimurium TA98 assessed as revertants at 1.5 uM incubated for 90 mins followed by drug washout measured after 2 days relative to positive control; format: toxicity, organism-based; conditions: salmonella enterica subsp. enterica serovar typhimurium, 1.5 h
Plasmodium falciparum [6] = assay: Resistance ratio of IC50 for chloroquine-resistant Plasmodium falciparum W2 to IC50 for chloroquine-sensitive Plasmodium falciparum D10; format: functional
Plasmodium berghei [7] = assay: Antimalarial activity against Plasmodium berghei ANKA expressing GFP infected in mouse assessed as mean survival days at 100 mg/kg, po administered 24 hrs post-infection (reference value: 6 to 7 days); format: functional
Plasmodium falciparum [8] = assay: Resistance ratio of IC50 for chloroquine-resistant Plasmodium falciparum K1 to IC50 for chloroquine-sensitive Plasmodium falciparum NF54; format: functional
Plasmodium berghei [9] = assay: Antimalarial activity against Plasmodium berghei ANKA expressing GFP infected in mouse assessed as mean survival days at 30 mg/kg, po administered QD for 3 days (reference value: 6 to 7 days); format: functional
Heart [10] = assay: Cardiotoxicity against Sprague-Dawley rat Langendorff perfused heart assessed as intraventricular conduction time at 1 uM by electrophysiological analysis (reference value: 13.92 0.42 ms); format: toxicity, tissue-based
Plasmodium berghei [11] = assay: Antimalarial activity against Plasmodium berghei ANKA expressing GFP infected in mouse assessed as reduction in parasitemia at 30 mg/kg, po administered at 6,24,48 and 72 hrs post-infection measured 24 hrs post-final dosing by flow cytometric analysis; format: functional; set-up: scale not given: the % may be the effect or the level left
[12] = target: T1, Chloroquine resistance transporter (Plasmodium falciparum) (UniProt Q9N623); assay: Inhibition of chloroquine-resistant Plasmodium falciparum Dd2 CRT expressed in Xenopus laevis oocyte assessed as inhibition of [3H]chloroquine uptake at 100 uM measured from 1 to 2 hrs
T1 sequence (whole entry): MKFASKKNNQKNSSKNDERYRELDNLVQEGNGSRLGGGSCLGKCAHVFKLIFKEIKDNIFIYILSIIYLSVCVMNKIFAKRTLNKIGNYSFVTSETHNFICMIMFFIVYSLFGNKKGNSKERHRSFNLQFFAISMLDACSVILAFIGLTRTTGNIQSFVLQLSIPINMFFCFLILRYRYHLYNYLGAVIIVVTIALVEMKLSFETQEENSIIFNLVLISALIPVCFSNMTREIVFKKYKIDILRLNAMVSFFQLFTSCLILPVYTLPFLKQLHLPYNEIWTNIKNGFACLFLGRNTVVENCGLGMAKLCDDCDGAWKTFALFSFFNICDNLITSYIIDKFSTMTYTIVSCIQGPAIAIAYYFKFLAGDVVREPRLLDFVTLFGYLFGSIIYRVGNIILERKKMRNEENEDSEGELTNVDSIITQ

Heart [13] = assay: Cardiotoxicity against Sprague-Dawley rat Langendorff perfused heart assessed as atrioventricular conduction time at 0.1 uM by electrophysiological analysis (reference value: 42.67 2.29 ms); format: toxicity, tissue-based
Salmonella typhimurium [14] = assay: Mutagenicity against Salmonella typhimurium TA98 assessed as revertants at 48 uM incubated for 90 mins followed by drug washout measured after 2 days relative to positive control; format: toxicity, organism-based; conditions: salmonella enterica subsp. enterica serovar typhimurium, 1.5 h
Plasmodium berghei [15] = assay: Antimalarial activity against Plasmodium berghei ANKA expressing GFP infected in mouse assessed as reduction in parasitemia at 50 mg/kg, po administered QD for 3 days measured 24 hrs post-final dosing by flow cytometric analysis; format: functional; set-up: scale not given: the % may be the effect or the level left
Heart [16] = assay: Cardiotoxicity against Sprague-Dawley rat Langendorff perfused heart assessed as intraventricular conduction time at 0.1 uM by electrophysiological analysis (reference value: 13.92 0.42 ms); format: toxicity, tissue-based
Heart [17] = assay: Cardiotoxicity against Sprague-Dawley rat Langendorff perfused heart assessed as atrioventricular conduction time at 10 uM by electrophysiological analysis (reference value: 42.67 2.29 ms); format: toxicity, tissue-based
Liver = assay: Drug uptake in CD1 albino mouse liver at 50 mg/kg, po at 6 to 48 hrs; format: ADME, organism-based; set-up: dose 50 mg/kg, route oral; conditions: in vivo
Heart [18] = assay: Cardiotoxicity against Sprague-Dawley rat Langendorff perfused heart assessed as atrioventricular conduction time at 1 uM by electrophysiological analysis (reference value: 42.67 2.29 ms); format: toxicity, tissue-based
Plasmodium berghei [19] = assay: Antimalarial activity against Plasmodium berghei ANKA expressing GFP infected in mouse assessed as reduction in parasitemia at 100 mg/kg, po administered 24 hrs post-infection measured 48 hrs post-dosing by flow cytometric analysis; format: functional; set-up: scale not given: the % may be the effect or the level left
Heart [20] = assay: Cardiotoxicity against Sprague-Dawley rat Langendorff perfused heart assessed as QT time interval at 1 uM by electrophysiological analysis (reference value: 73.01 4.52 ms); format: toxicity, tissue-based
Plasmodium berghei [21] = assay: Antimalarial activity against Plasmodium berghei ANKA expressing GFP infected in mouse assessed as reduction in parasitemia at 30 mg/kg, po administered QD for 3 days measured 24 hrs post-final dosing by flow cytometric analysis; format: functional; set-up: scale not given: the % may be the effect or the level left
Salmonella typhimurium [22] = assay: Mutagenicity against Salmonella typhimurium TA98 assessed as revertants at 12 uM incubated for 90 mins followed by drug washout measured after 2 days relative to positive control; format: toxicity, organism-based; conditions: salmonella enterica subsp. enterica serovar typhimurium
Heart [23] = assay: Cardiotoxicity against Sprague-Dawley rat Langendorff perfused heart assessed as QTc time interval at 1 uM by electrophysiological analysis (reference value: 145.78 10.53 ms); format: toxicity, tissue-based
Heart [24] = assay: Cardiotoxicity against Sprague-Dawley rat Langendorff perfused heart assessed as PQ prolongation-induced atrioventricular block at 30 uM by electrophysiological analysis; format: toxicity, tissue-based
Heart [25] = assay: Cardiotoxicity against Sprague-Dawley rat Langendorff perfused heart assessed as intraventricular conduction time at 30 uM by electrophysiological analysis (reference value: 13.92 0.42 ms); format: toxicity, tissue-based
Plasmodium falciparum [26] = assay: Antiplasmodial activity against chloroquine-sensitive Plasmodium falciparum D10 infected in human RBC after 72 hrs by parasite lactate dehydrogenase assay; format: functional, organism-based; conditions: D10, 72 h
Heart [27] = assay: Cardiotoxicity against Sprague-Dawley rat Langendorff perfused heart assessed as QT time interval at 30 uM by electrophysiological analysis (reference value: 73.01 4.52 ms); format: toxicity, tissue-based
Salmonella typhimurium [28] = assay: Mutagenicity against Salmonella typhimurium TA100 assessed as revertants at 12 uM incubated for 90 mins followed by drug washout measured after 2 days relative to positive control; format: toxicity, organism-based; conditions: salmonella enterica subsp. enterica serovar typhimurium
[29] = Cytotoxicity against mouse NIH3T3 cells after 24 hrs by neutral red dye uptake assay; format: cell-based; conditions: read-out: TC50
Plasmodium berghei [30] = assay: Antimalarial activity against Plasmodium berghei ANKA expressing GFP infected in mouse assessed as cure from infection at 30 mg/kg, po administered QD for 3 days measured on day 30; format: functional, organism-based; set-up: dose 30 mg/kg
Heart [31] = assay: Cardiotoxicity against Sprague-Dawley rat Langendorff perfused heart assessed as heart rate at 10 uM by electrophysiological analysis (reference value: 236.68 7.83 bpm); format: toxicity, tissue-based

**Q.** Which results are given for `Clc1ccc(C(Nc2ccnc3cc(Cl)ccc23)c2ccc(CN3CCNCC3)cc2)cc1` (racemic)?
**A.** inhibition [1]: Dose-dependent effect; Time (Heart [2]): 256.97 ms; Time (Heart [3]): 168.83 ms; half-life [4]: 29 h; Activity (Salmonella typhimurium [5]): 2%; Ratio IC50 (Plasmodium falciparum [6]): 0.93; MSD (Plasmodium berghei [7]): 28.8 days; Ratio IC50 (Plasmodium falciparum [8]): 1.3; MSD (Plasmodium berghei [9]): 29 days; Time (Heart [10]): 14.18 ms; Activity (Plasmodium berghei [11]): 99.8%; inhibition [12]: Active; Time (Heart [13]): 42.53 ms; Activity (Salmonella typhimurium [14]): 4%; Activity (Plasmodium berghei [15]): 99.8%; Time (Heart [16]): 14 ms; Time (Heart [17]): 50.56 ms; Drug uptake (Liver): Not Active; Time (Heart [18]): 42.38 ms; Activity (Plasmodium berghei [19]): 99.5%; Time (Heart [20]): 76.5 ms; Activity (Plasmodium berghei [21]): 99.8%; Activity (Salmonella typhimurium [22]): 4%; Time (Heart [23]): 151.17 ms; Activity (Heart [24]): Toxic; Time (Heart [25]): 22.67 ms; IC50 (Plasmodium falciparum [26]): 62 nM; Time (Heart [27]): 94.33 ms; Activity (Salmonella typhimurium [28]): 17%; CC50 at 24 h [29]: 1800 nM; Activity (Plasmodium berghei [30]): inactive; Activity (Heart [31]): 216.05 bpm

From ChEMBL document CHEMBL2169878 (J Med Chem, 2012)
